Source: patent publication US8796246B2, “9, 10-secopregnane derivative and pharmaceutical” (Nippon Shinyaku Co., Ltd., priority 2006, dated 2014)

Test system: human acute myelogenous leukemia cell line HL-60
Assay: Ability to induce differentiation of HL-60 cells (oxygen radical production after phorbol ester, WST-1)
Type: cell-based
Details: 72 hours incubation, then WST-1 and phorbol 12,13-didecanoate for 4 hours, absorbance at 450 nm
Excerpt: It is known that the human acute myelogenous leukemia cell line HL-60is differentiated into neutrophil-like cells by active vitamin D or the like. Thus, the cells after the differentiation begin to express a surface marker such as CD11and CD32and, at the same time, they produce an oxygen radical by stimulation with a phorbol ester or the like. In this test, the above-mentioned property was utilized. As an index of the ability to induce differentiation of the HL-60cells, the amount of the oxygen radical produced by stimulation with a phorbol ester was measured, and the compounds of the invention mentioned in Examples were compared with maxacalcitol with respect to the vitamin D3activity thereof. In use of commercial reagents and kits, if any, the indications attached thereto were referred to.
HL-60cells (supplied from ATCC) were seeded on a 96-well plate at 5×10^3cells/100μL/well and a test compound in two-fold dilution series from 10^−7M was added to the second to the twelfth rows (maximum concentration: the second row). The first row was used for blank. After incubation for 72 hours under a moisturized condition in the presence of 5% CO2 at 37° C. using a CO2 incubator, 10 μL of PBS containing 50 mM WST-1 (manufactured by Takara Bio) and 10 μM phorbol 12,13-didecanoate (manufactured by SIGMA) were added to each well followed by further incubation for 4 hours. Absorbance (reference wavelength: […]) at […] of the WST-1 formazane dye generated by conversion from WST-1 by oxygen radical produced from the differentiated HL-60 cells was measured by a Benchmark microplate reader (manufactured by BioRad). An absorbance meter control software MPM3 (manufactured by BioRad) was used and, from a concentration-absorbance curve, the 50%-maximal effective concentration (hereinafter, referred to as “EC50”) of each was determined by a logistic curve regression.

Compound	EC50 [nM]
C=C1C(=CC=C2CCCC3(C)C2CCC3C(C)OC(=O)CN(C)CC(C)(C)O)CC(O)CC1O [Compound of Example 19, (1S,3R,20S)-20-[N-(2-hydroxy-2-methylpropyl)-N-methyl-2-aminoacetyloxy]-9,10-secopregna-5Z,7E,10(19)-triene-1,3-diol]	2.4
C=C1C(=CC=C2CCCC3(C)C2CCC3C(C)OC(=O)CC(=O)C(C)(C)O)CC(O)CC1O [Compound of Example 27, (1S,3R,20S)-20-(4-hydroxy-4-methyl-3-oxo-pentanoyloxy)-9,10-secopregna-5Z,7E,10(19)-triene-1,3-diol]	4.1
C=C1C(=CC=C2CCCC3(C)C2CCC3C(C)OC(=O)CC(O)C(C)C)CC(O)CC1O [Compound of Example 5, (1S,3R,20S)-20-(3-hydroxy-4-methylpentanoyloxy)-9,10-secopregna-5Z,7E,10(19)-triene-1,3-diol]	0.86
C=C1C(O)CC(=CC=C2CCCC3(C)C2CCC3C(C)OC(=O)CCCC(C)(C)O)CC1O [Compound of Example 57, (1R,3R,20S)-2-methylene-19-nor-20-(5-hydroxy-5-methylhexanoyloxy)-9,10-secopregna-5Z,7E-diene-1,3-diol]	0.53
(1S,3R,20S)-20-(5-hydroxy-5-methylheptanoyloxy)-9,10-secopregna-5Z,7E,10(19)-triene-1,3-diol [Compound of Example 11]	2.2

Continued, values first:

EC50 [nM]	Compound
0.38	C=C1C(=CC=C2CCCC3(C)C2CCC3C(C)OC(=O)CC(O)(C(F)(F)F)C(F)(F)F)CC(O)CC1O [Compound of Example 7, (1S,3R,20S)-20-[4,4,4-trifluoro-3-hydroxy-3-(trifluoromethyl)butanoyloxy]-9,10-secopregna-5Z,7E,10(19)-triene-1,3-diol]
0.31	C=C1C(=CC=C2CCCC3(C)C2CCC3C(C)OC(=O)CC(C)(O)C(F)(F)F)CC(O)CC1O [Compound of Example 4, (1S,3R,20S)-20-(4,4,4-trifluoro-3-hydroxy-3-methylbutanoyloxy)-9,10-secopregna-5Z,7E,10(19)-triene-1,3-diol]
1.7	C=C1C(=CC=C2CCCC3(C)C2CCC3C(C)OC(=O)CC(=O)C(O)(CC)CC)CC(O)CC1O [Compound of Example 28, (1S,3R,20S)-20-(4-ethyl-4-hydroxy-3-oxo-hexanoyloxy)-9,10-secopregna-5Z,7E,10(19)-triene-1,3-diol]
1.5	C=C1C(=CC=C2CCCC3(C)C2CCC3C(C)OC(=O)CC(O)(CC)CC)CC(O)CC1O [Compound of Example 12, (1S,3R,20S)-20-(3-ethyl-3-hydroxypentanoyloxy)-9,10-secopregna-5Z,7E,10(19)-triene-1,3-diol]
